The assay deals with T1, PIP4K2C (Homo sapiens, UniProt Q8TBX8).
T1 sequence (Q8TBX8 1-421): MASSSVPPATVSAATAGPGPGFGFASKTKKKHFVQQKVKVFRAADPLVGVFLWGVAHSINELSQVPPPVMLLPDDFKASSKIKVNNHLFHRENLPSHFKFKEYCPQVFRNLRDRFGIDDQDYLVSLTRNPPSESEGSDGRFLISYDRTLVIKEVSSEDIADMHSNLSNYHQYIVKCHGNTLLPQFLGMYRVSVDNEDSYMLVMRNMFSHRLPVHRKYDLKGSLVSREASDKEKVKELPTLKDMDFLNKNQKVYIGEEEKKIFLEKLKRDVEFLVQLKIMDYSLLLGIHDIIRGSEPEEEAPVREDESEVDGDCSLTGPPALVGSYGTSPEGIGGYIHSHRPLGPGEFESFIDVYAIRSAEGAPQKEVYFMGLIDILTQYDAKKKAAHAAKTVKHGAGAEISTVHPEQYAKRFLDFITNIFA
The assay can be described thus: HiBiT PIP4K2C degradation assay in MOLT-4 cells (endogenous PIP4K2C C-terminally tagged with HiBiT). In kind it is cell-based. The arrangement: untagged in primary human PBMCs and monocyte-derived dendritic cells. The conditions noted are these: 6 hours of incubation time, rather than 24 hours; MOLT-4, top concentration 10 micromolar; read-out: HiBIT-degradation MOLT4 PIP4k2C DC50 (6 hours, marked *). A digest of the protocol: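 MOLT-4 knock-in line, HiBiT on PIP4K2C C-terminus; 22,500 cells/well; 10-pt 3-fold titration from 10 micromolar, n=2; 24 h or 6 h, 37 C, 5% CO2; Nano-Glo HiBiT lytic luminescence; DC50 via Hill equation.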
A word on the DC50: it is the concentration giving 50% degradation. For the molecule `O=C1CCC(Nc2ccc(C3CCN([C@H]4CC[C@H](NC(=O)[C@H]5CC[C@H](Nc6ncc(F)c(-c7cccc(C8(O)CCC8)n7)n6)CC5)CC4)CC3)c(F)c2)C(=O)N1` (stereo partly drawn) [Compound 479, trans-N-((trans)-4-(4-(4-((2,6-dioxopiperidin-3-yl)amino)-2-fluorophenyl)piperidin-1-yl)cyclohexyl)-4-((5-fluoro-4-(6-(1-hydroxycyclobutyl)pyridin-2-yl)pyrimidin-2-yl)amino)cyclohexane-1-carboxamide], the DC50 is less than 0.5 µM.
The same measure for `O=C1CCC(Nc2ccc(C3CCN([C@H]4CC[C@H](NC(=O)[C@H]5CC[C@H](Nc6ncc(F)c(-c7ccnc(N8CCOCC8=O)c7)n6)CC5)CC4)CC3)c(F)c2)C(=O)N1` (stereo partly drawn) [Compound 480, trans-N-((trans)-4-(4-(4-((2,6-dioxopiperidin-3-yl)amino)-2-fluorophenyl)piperidin-1-yl)cyclohexyl)-4-((5-fluoro-4-(2-(3-oxomorpholino)pyridin-4-yl)pyrimidin-2-yl)amino)cyclohexane-1-carboxamide]: less than 0.5 µM.
For the molecule `O=C1CCC(Nc2ccc(C3CCN(CC4(O)CCN(C(=O)[C@H]5CC[C@H](Nc6ncc(F)c(-c7cccc(C(=O)N8CC[C@H](O)C8)c7)n6)CC5)CC4)CC3)c(F)c2)C(=O)N1` (stereo partly drawn) [Compound 481, trans-3-((3-fluoro-4-(1-((1-(4-((5-fluoro-4-(3-((S)-3-hydroxypyrrolidine-1-carbonyl)phenyl)pyrimidin-2-yl)amino)cyclohexane-1-carbonyl)-4-hydroxypiperidin-4-yl)methyl)piperidin-4-yl)phenyl)amino)piperidine-2,6-dione], the DC50 is less than 0.5 µM.
The value for `O=C1CCC(Nc2ccc(N3CCN(CC4(O)CCN(C(=O)[C@H]5CC[C@H](Nc6ncc(F)c(-c7cccc(C(=O)N8CC[C@H](O)C8)c7)n6)CC5)CC4)CC3)c(F)c2)C(=O)N1` (stereo partly drawn) [Compound 482, trans-3-((3-fluoro-4-(4-((1-(4-((5-fluoro-4-(3-((S)-3-hydroxypyrrolidine-1-carbonyl)phenyl)pyrimidin-2-yl)amino)cyclohexane-1-carbonyl)-4-hydroxypiperidin-4-yl)methyl)piperazin-1-yl)phenyl)amino)piperidine-2,6-dione] was less than 0.5 µM; that for `O=C1CCC(Nc2ccc(N3CCN(CC4CCN(C(=O)[C@H]5CC[C@H](Nc6ncc(F)c(-c7cccc(C(=O)N8CC[C@H](O)C8)c7)n6)CC5)CC4)CC3)c(F)c2)C(=O)N1` (stereo partly drawn) [Compound 483, trans-3-((3-fluoro-4-(4-((1-(4-((5-fluoro-4-(3-((S)-3-hydroxypyrrolidine-1-carbonyl)phenyl)pyrimidin-2-yl)amino)cyclohexane-1-carbonyl)piperidin-4-yl)methyl)piperazin-1-yl)phenyl)amino)piperidine-2,6-dione] was less than 0.5 µM; that for `O=C1CCC(Nc2ccc(N3CCN(CC4(F)CCN(C(=O)[C@H]5CC[C@H](Nc6ncc(F)c(-c7cccc(-c8ccccc8)c7)n6)CC5)CC4)CC3)c(F)c2)C(=O)N1` (stereo partly drawn) [Compound 484, trans-3-[3-fluoro-4-[4-[[4-fluoro-1-[4-[[5-fluoro-4-(3-phenylphenyl)pyrimidin-2-yl]amino]cyclohexanecarbonyl]-4-piperidyl]methyl]piperazin-1-yl]anilino]piperidine-2,6-dione] was less than 0.5 µM.
The same measure for `O=C1CCC(Nc2ccc(N3CCN(CC4CCN(C(=O)[C@H]5CC[C@H](Nc6ncc(F)c(-c7cccc(-c8ccccc8)c7)n6)CC5)CC4)CC3)c(F)c2)C(=O)N1` (stereo partly drawn) [Compound 485, trans-3-((4-(4-((1-(4-((4-([1,1′-biphenyl]-3-yl)-5-fluoropyrimidin-2-yl)amino)cyclohexane-1-carbonyl)piperidin-4-yl)methyl)piperazin-1-yl)-3-fluorophenyl)amino)piperidine-2,6-dione]: less than 0.5 µM.
For the molecule `O=C1CCC(Nc2ccc(C3CCN(CC4(F)CCN(C(=O)[C@H]5CC[C@H](Nc6ncc(F)c(-c7cccc(-n8ccccc8=O)c7)n6)CC5)CC4)CC3)c(F)c2)C(=O)N1` (stereo partly drawn) [Compound 487, trans-3-((3-fluoro-4-(1-((4-fluoro-1-(4-((5-fluoro-4-(3-(2-oxopyridin-1(2H)-yl)phenyl)pyrimidin-2-yl)amino)cyclohexane-1-carbonyl)piperidin-4-yl)methyl)piperidin-4-yl)phenyl)amino)piperidine-2,6-dione], the DC50 was less than 0.5 µM.
The same measure for `CN(C(=O)[C@H]1CC[C@H](Nc2ncc(F)c(-c3cccc(-n4ccccc4=O)c3)n2)CC1)[C@H]1CC[C@H](N2CCN(c3ccc(NC4CCC(=O)NC4=O)cc3F)CC2)CC1` (stereo partly drawn) [Compound 488, trans-(1r,4R)—N-((1r,4R)-4-(4-(4-((2,6-dioxopiperidin-3-yl)amino)-2-fluorophenyl)piperazin-1-yl)cyclohexyl)-4-((5-fluoro-4-(3-(2-oxopyridin-1(2H)-yl)phenyl)pyrimidin-2-yl)amino)-N-methylcyclohexane-1-carboxamide]: less than 0.5 µM; for `Cn1nc(C2CCC(=O)NC2=O)c2ccc(N3CCN(C[C@H]4CC[C@H](C(=O)N[C@H]5CC[C@H](Nc6ncc(F)c(-c7cccc(-n8ccccc8=O)c7)n6)CC5)CC4)CC3)cc21` (stereo partly drawn) [Compound 489, trans-(1r,4R)-4-((4-(3-(2,6-dioxopiperidin-3-yl)-1-methyl-1H-indazol-6-yl)piperazin-1-yl)methyl)-N-((1r,4R)-4-((5-fluoro-4-(3-(2-oxopyridin-1(2H)-yl)phenyl)pyrimidin-2-yl)amino)cyclohexyl)cyclohexane-1-carboxamide]: less than 0.5 µM; for `O=C1CCC(Nc2ccc(N3CCN([C@H]4CC[C@H](NC(=O)[C@H]5CC[C@H](Nc6ncc(F)c(-c7cccc(N8CCCOC8=O)c7)n6)CC5)CC4)CC3)c(F)c2)C(=O)N1` (stereo partly drawn) [Compound 490, trans-N-(trans-4-(4-(4-((2,6-dioxopiperidin-3-yl)amino)-2-fluorophenyl)piperazin-1-yl)cyclohexyl)-4-((5-fluoro-4-(3-(2-oxo-1,3-oxazinan-3-yl)phenyl)pyrimidin-2-yl)amino)cyclohexane-1-carboxamide]: less than 0.5 µM.
For the molecule `O=C1CCC(Nc2ccc(N3CCN(CC4(F)CCN(C(=O)[C@H]5CC[C@H](Nc6ncc(F)c(-c7cccc(N8CCCCC8)c7)n6)CC5)CC4)CC3)c(F)c2)C(=O)N1` (stereo partly drawn) [Compound 491, trans-3-((3-fluoro-4-(4-((4-fluoro-1-(4-((5-fluoro-4-(3-(piperidin-1-yl)phenyl)pyrimidin-2-yl)amino)cyclohexane-1-carbonyl)piperidin-4-yl)methyl)piperazin-1-yl)phenyl)amino)piperidine-2,6-dione], the DC50 is less than 0.5 µM.
The value for `O=C1CCC(Nc2ccc(N3CCN(CC4(O)CCN(C(=O)[C@H]5CC[C@H](Nc6ncc(F)c(-c7cccc(C8CC8)c7)n6)CC5)CC4)CC3)c(F)c2)C(=O)N1` (stereo partly drawn) [Compound 492, trans-3-((4-(4-((1-(4-((4-(3-cyclopropylphenyl)-5-fluoropyrimidin-2-yl)amino)cyclohexane-1-carbonyl)-4-hydroxypiperidin-4-yl)methyl)piperazin-1-yl)-3-fluorophenyl)amino)piperidine-2,6-dione] was less than 0.5 µM; that for `O=C1CCC(Nc2ccc(N3CCN(CC4(O)CCN(C(=O)[C@H]5CC[C@H](Nc6ncc(F)c(-c7cccc(N8CCCCC8)c7)n6)CC5)CC4)CC3)c(F)c2)C(=O)N1` (stereo partly drawn) [Compound 493, trans-3-[3-fluoro-4-[4-[[1-[4-[[5-fluoro-4-[3-(1-piperidyl)phenyl]pyrimidin-2-yl]amino]cyclohexanecarbonyl]-4-hydroxy-4-piperidyl]methyl]piperazin-1-yl]anilino]piperidine-2,6-dione] was less than 0.5 µM.
With `O=C1CCC(Nc2ccc(N3CCC(N4CCC(NC(=O)[C@H]5CC[C@H](Nc6ncc(F)c(-c7cccc(N8CCCCC8=O)c7)n6)CC5)CC4)C(F)(F)C3)c(F)c2)C(=O)N1` (stereo partly drawn) [Compound 494, trans-N-(1′-(4-((2,6-dioxopiperidin-3-yl)amino)-2-fluorophenyl)-3′,3′-difluoro-[1,4′-bipiperidin]-4-yl)-4-((5-fluoro-4-(3-(2-oxopiperidin-1-yl)phenyl)pyrimidin-2-yl)amino)cyclohexane-1-carboxamide], the DC50 is less than 0.5 µM.
The same measure for `O=C1CCC(Nc2ccc(N3CCC(N4CCC(NC(=O)[C@H]5CC[C@H](Nc6ncc(F)c(-c7cccc(N8CCCOC8=O)c7)n6)CC5)CC4)C(F)(F)C3)c(F)c2)C(=O)N1` (stereo partly drawn) [Compound 495, trans-N-(1′-(4-((2,6-dioxopiperidin-3-yl)amino)-2-fluorophenyl)-3′,3′-difluoro-[1,4′-bipiperidin]-4-yl)-4-((5-fluoro-4-(3-(2-oxo-1,3-oxazinan-3-yl)phenyl)pyrimidin-2-yl)amino)cyclohexane-1-carboxamide]: less than 0.5 µM; for `O=C1CCC(Nc2ccc(N3CCC(N4CCC(NC(=O)[C@H]5CC[C@H](Nc6ncc(F)c(-c7cccc(N8CCOCC8=O)c7)n6)CC5)CC4)C(F)(F)C3)c(F)c2)C(=O)N1` (stereo partly drawn) [Compound 496, trans-N-(1′-(4-((2,6-dioxopiperidin-3-yl)amino)-2-fluorophenyl)-3′,3′-difluoro-[1,4′-bipiperidin]-4-yl)-4-((5-fluoro-4-(3-(3-oxomorpholino)phenyl)pyrimidin-2-yl)amino)cyclohexane-1-carboxamide]: less than 0.5 µM.

The values above are taken from US20260355196A1, “INHIBITORS AND DEGRADERS OF PIP4K PROTEIN” (Larkspur Biosciences, Inc., priority 2023, published 2026).
